According to patent US10280179B2, “Spiroquinoxaline derivatives as inhibitors of non-apoptotic regulated cell-death” (Helmholtz Zentrum Munchen—Deutches Forschungszentrum Fur …, priority 2013, dated 2019):

Legend:
C57BL/6 mice [1] = test: Liver ischemia-reperfusion injury animal model (Example C.1); type: in vivo, mouse; conditions: liver IRI (90 min ischemia, 24 h reperfusion), single i.p. dose 10 mg/Kg, compared to vehicle control
Method: FIG. 2: Efficacy of a compound of the invention in an animal model of liver IRI. […] The “Sham” bar represents the data from control animals that were treated to the same protocol but without atraumatic clipping. Errors shown are SEM. Significant differences are seen between IRI+vehicle compared to IRI+Cmpd, as well as between IRI+vehicle compared to Sham+vehicle.
Briefly, to test such utility of compounds disclosed herein, ischemia is induced in the liver of 6-8 week old C57BL/6 mice (Charles River) by midline laparotomy whereby the blood supply to the left and median lobes of the liver is interrupted via atraumatic clipping for 90 min, followed by reperfusion for a period of 24 h. After reperfusion, but prior to final abdominal closure, animals are treated with a single i.p. dose of the compound to be tested (10 mg/Kg), or with vehicle (DMSO) as negative control. Markers to be investigated for IRI of liver include liver parameters from serum (ALT/GPT, AST/GOT, Bilirubin, Urea), histopathological analysis and rtPCR of inflammatory and non-apoptotic cell death markers (such as TNF-alpha and INF-gamma). […] The “Sham” bar represents the data from control animals that were treated to the same protocol but without atraumatic clipping.

SH-SY5Y cells = test: TNF-alpha-induced apoptosis, specificity for non-apoptotic cell death (Example B.3); type: cell-based, human; conditions: compound 1 μM, TNF-alpha 10 ng/mL, FIG. 1
Method: SH-SY5Y cells were propagated and seeded in 96-well plates, together with compound N-1, N-2, N-10 of Table 1-N (FIG. 1(a)), compound O/S-6 or O/S-3 of Table 1-O/S (FIG. 1(b)), or compound C-12, C-91, or C-205 of Table 1-C (FIG. 1(c)) (each 1 μM) and TNF-alpha was added (final concentration: 10 ng/mL) to induce apoptosis. The apoptosis and pan-caspase inhibitor z-vad (final concentration: 50 μM) and the necroptosis inhibitor Necrostatin-1 (Nec-1; final concentration: 5 μM) were used for comparison. Control wells were established with vehicle only (DMSO), with and without treatment with TNF-alpha to induce apoptosis. Cells were incubated, and cell survival was detected and quantified. Percentage cell survival after TNF-alpha-induced apoptosis is shown (error bars indicate standard deviation (SD)).
Briefly, SH-SY5Y cells were propagated and seeded in 96-well plates, together with the compound to be tested (1 μM), generally as described in Example B.1, except they were seeded at 1,000 cell/well and instead of BSO, TNF-alpha (Invitrogen) was added to a final concentration of 10 ng/mL to induce apoptosis. The apoptosis and pan-caspase inhibitor Z-VAD-fmk (Enzo Life Science; final concentration 50 μM) and the necroptosis inhibitor Necrostatin-1 (Nec-1; Enzo Life Science; final concentration 5 μM) were used for comparison. Control wells were established with vehicle only (DMSO), with and without treatment with TNF-alpha to induce apoptosis. Cells were incubated, and cell survival was detected and quantified as described in Example B.1.

C57BL/6 mice [2] = test: Kidney ischemia-reperfusion injury animal model (Example C.2); type: in vivo, mouse; conditions: kidney IRI, compared to vehicle control, FIG. 3
Method: FIG. 3: Efficacy of a compound of the invention in an animal model of kidney IRI.
Briefly, to test such utility of compounds disclosed herein, ischemia is induced in the kidney of 6-8 week old C57BL/6 mice by interruption of the blood supply to the kidney via reversible clipping of the Arteria renalis for 30 min, followed by reperfusion for a period of 24 h. Mice are treated with compound (or vehicle control) generally as described in Example C.1 at 1 hour prior to and four hours after abdominal closure and once daily over a period of 14 days. Markers to be investigated for IRI of kidney include reduction of creatinine levels in the serum along with histopathological analysis.

Compound: Clc1cccc(CNC2=Nc3ccccc3NC23CCNCC3)c1 [N-2]
- serum marker for liver cell damage GPT (C57BL/6 mice [1]; FIG. 2(a)): significant reduction
- serum marker for liver cell damage GOT (C57BL/6 mice [1]; FIG. 2(b)): significant reduction
- Percentage cell survival after TNF-alpha-induced apoptosis (SH-SY5Y cells): Non-inhibition of apoptotic cell-death
- survival of mice suffering kidney-ischemic reperfusion injury (C57BL/6 mice [2]; dose 1 mg/kg): Improved survival
- survival of mice suffering kidney-ischemic reperfusion injury (C57BL/6 mice [2]; dose 10 mg/kg): Improved survival
